Measurements as given in patent US20250003011A1, “SAMPLE PREPARATION METHODS USING MODIFIED BASES FOR RAPID IDENTIFICATION AND SEQUENCING” (priority 2023, published 2025).

Experiments:
DeepVent DNA polymerase = molecular target: T1, DeepVent DNA polymerase (Pyrococcus sp., UniProt Q51334, DEL493-1029); test: Elongation (fill-in) assay on 200-mer template with modified uridine triphosphates; format: biochemical; conditions: modified nucleotide replaces dTTP at 100%; 72° C., 30 min
T1 construct: purchased
Description: (§1) A synthetic template of 200 bases was used to determine the capacity of Deep Vent and Manta DNA polymerase to integrate modified uridine triphosphate. The synthesis was initiated from a 20 bases complementary oligonucleotide and various conditions were tested. In lanes 1 and 6, all triphosphate nucleotide except dTTP were added in the reaction mix according to the manufacturer recommendation (negative control) to determine if the polymerase is stopped at positions where it needs to integrate a thymidine. In lane 2, dTTP was added to the reaction mix as the positive control where full length construct should be obtained. In lanes 3 and 7, 4 and 8 and 5 and 9, IdU, FdU and CldU were added to the reaction mix respectively to replace at 100% the dTTP. […] This is not the case for the Manta DNA polymerase as the only product observed is where the polymerase should have integrated a thymidine.
(§2) In order to identify the proper DNA polymerase that can utilise modified uridine triphosphate, we performed an elongation assay with different DNA polymerases and various combination of nucleotide mixes, using a 22-mer primer (PS2508, SEQ ID NO: 1) annealed to a 200-mer template (PS2509, SEQ ID NO:2). As the template contains a lot of instances of adenines, there are multiple positions where the polymerase must be able to incorporate uridine to be able to produce full length fill in reaction.
(§3) On the other hand, when dTTP or dUTP was replaced with a modified dUTP, a full-length reaction product was detected for both Manta™ and DeepVent DNA polymerases.
(§4) The conditions for the fill in reaction were as follow: dATP, dGTP, dCTP and Iodo dUTP were prepared in a mix at 500 μM each and used at a final concentration of 100 μM final; 1 μl of Manta™ or DeepVent polymerase were used on 10 pmoles of the 200-mer (PS2509) with the 22-mer primer (PS2508) pre-annealed to initiate the fill-in.
(§5) The incubation was done for 30 min at 65° C. for the Manta or 72° C. for the DeepVent, in a MiniAmp thermalCycler (Applied Biosystems) with lid at 105° C. to prevent evaporation.

Manta DNA polymerase = molecular target: T2, Manta DNA polymerase (Geobacillus stearothermophilus, UniProt P52026); test: as above; format: biochemical; conditions: modified nucleotide replaces dTTP at 100%; 65° C., 30 min
T2 construct: Bst DNA Polymerase, Large Fragment (e.g., Manta®); purchased
T2 sequence (P52026 289-876 limits assumed): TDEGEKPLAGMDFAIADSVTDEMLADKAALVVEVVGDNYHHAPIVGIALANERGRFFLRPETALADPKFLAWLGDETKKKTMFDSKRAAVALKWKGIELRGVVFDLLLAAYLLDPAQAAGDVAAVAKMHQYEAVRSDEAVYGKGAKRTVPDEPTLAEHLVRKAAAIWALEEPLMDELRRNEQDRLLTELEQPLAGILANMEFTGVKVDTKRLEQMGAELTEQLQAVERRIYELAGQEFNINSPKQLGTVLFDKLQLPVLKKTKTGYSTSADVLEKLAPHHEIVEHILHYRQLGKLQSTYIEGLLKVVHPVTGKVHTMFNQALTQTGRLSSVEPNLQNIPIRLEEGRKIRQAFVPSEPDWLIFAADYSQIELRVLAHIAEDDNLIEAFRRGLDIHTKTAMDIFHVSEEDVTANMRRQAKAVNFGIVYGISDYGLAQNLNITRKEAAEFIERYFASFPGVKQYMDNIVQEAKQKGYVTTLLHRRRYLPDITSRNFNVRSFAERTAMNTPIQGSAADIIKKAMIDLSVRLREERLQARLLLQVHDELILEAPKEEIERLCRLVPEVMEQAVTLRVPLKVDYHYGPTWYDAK
Description: as §1, §2, §3, §4, §5

MANTA polymerase [1] = molecular target: T3, MANTA polymerase (Geobacillus stearothermophilus, UniProt P52026); test: Incorporation of two modified nucleotides in one fill-in reaction, distribution detected by antibodies on hairpins; format: biochemical; parameters: Bst DNA Polymerase, Large Fragment (e.g., Manta®); purchased; conditions: iodo-dUTP 5 μM and pseudo-dUTP 95 μM replacing dTTP; anti-iodouridine and anti-pseudouridine antibodies
T3 sequence (P52026 289-876 limits assumed): T2 sequence (P52026 289-876 limits assumed)
From the text: After synthesis, the hairpin was assembled and assessed with both anti-iodouridine antibody and anti-pseudouridine antibody.
FIG. 4B: For each molecule, we counted the number of positions detected by either the anti-IdU or anti-pseudouridine over the expected total number of positions for this sequence. We then plotted the distribution of each modification for all the functional molecules.
One of the 50 long oligonucleotides described in Example 3 was used as a template to incorporate two different modified nucleotides at the same time. Both iodo-dUTP as well as pseudo-dUTP were included in the nucleotide mix (at 5 μM and 95 μM respectively) during the replication step to completely replace the natural base dTTP. After synthesis of the complementary strand, the hairpin was assembled and assessed with both anti-iodouridine antibody (clone OTI2F8 from Abcam) and anti-pseudouridine antibody (Cat. No. C15200236, Diagenode) (FIG. 4A).
The distribution of each modified base in the hairpin was determined for each modification (FIG. 4B).

MANTA polymerase [2] = molecular target: T3, MANTA polymerase; test: Measurement of the KD of modified uridine triphosphates, single-adenine template, FITC primer, PAGE; conditions: 65° C., 2 minutes; 100 μM dATP, dCTP, dGTP; no dTTP
Description: The reaction was supplemented with dATP, dCTP and dGTP as well as the uridine triphosphate tested (no dTTP was added to the reaction).
The KD is defined as the concentration of the modified dUTP required to produce 50% of fill in reaction. […] We then produced a second, simpler template comprising only one adenine in the template followed by 15 random bases excluding adenine (PS2972, SEQ ID NO:3). The template was designed such that the 3′ end of the complementary oligonucleotide tagged with FITC (PS1289, SEQ ID NO:4) ends at the base just before the adenine in the 32-base oligonucleotide. After annealing of these two oligonucleotides, there is thus only one A position where modified dUTP could be inserted (see FIG. 2A).
It was expected that if dCTP, dATP and dGTP were present in the reaction mix along with one of the modified uridine triphosphates, if the modified uridine was integrated by the polymerase, 16 bases would be added, thereby yielding a 32 base-long oligonucleotide tagged with FITC. […]
Polymerisation reactions were prepared with the Manta polymerase. […] Fluorescence of the reaction products were then quantified with ImageJ (National Institutes of Health).
For each modified uridine triphosphate, the ratio of fully extended product over the total amount of FITC-labelled oligonucleotide was calculated and plotted on a graph as a function of the concentration. […]

T1 sequence (Q51334 other isoform, or with tags, fused parts or gaps DEL493-1029): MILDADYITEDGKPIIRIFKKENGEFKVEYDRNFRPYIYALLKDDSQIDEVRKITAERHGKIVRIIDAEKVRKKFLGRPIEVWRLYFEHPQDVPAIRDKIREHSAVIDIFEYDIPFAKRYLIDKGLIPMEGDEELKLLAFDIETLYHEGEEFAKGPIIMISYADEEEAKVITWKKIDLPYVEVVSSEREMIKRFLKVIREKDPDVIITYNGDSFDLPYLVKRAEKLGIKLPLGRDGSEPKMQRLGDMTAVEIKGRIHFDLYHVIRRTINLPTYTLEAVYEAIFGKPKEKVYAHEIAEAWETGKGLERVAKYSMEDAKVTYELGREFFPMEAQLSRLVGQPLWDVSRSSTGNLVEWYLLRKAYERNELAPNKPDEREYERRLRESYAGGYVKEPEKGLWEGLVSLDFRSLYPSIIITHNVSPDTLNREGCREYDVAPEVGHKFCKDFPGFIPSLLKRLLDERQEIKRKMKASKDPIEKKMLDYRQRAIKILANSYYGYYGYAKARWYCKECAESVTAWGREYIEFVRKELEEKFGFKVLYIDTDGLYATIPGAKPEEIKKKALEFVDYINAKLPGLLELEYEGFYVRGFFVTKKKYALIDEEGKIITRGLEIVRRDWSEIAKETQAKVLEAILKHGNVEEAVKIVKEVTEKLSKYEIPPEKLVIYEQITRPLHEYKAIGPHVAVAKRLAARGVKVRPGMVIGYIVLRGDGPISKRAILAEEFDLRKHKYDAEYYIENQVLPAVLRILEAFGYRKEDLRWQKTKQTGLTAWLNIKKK

## O=c1[nH]c(=O)n([C@H]2C[C@H](O)[C@@H](COP(=O)(O)OP(=O)(O)OP(=O)(O)O)O2)cc1Cl [CldU, 5-chloro-2′-deoxyuridine-5′-triphosphate]
DeepVent DNA polymerase
  full length product in polymerisation reaction: full length products were obtained
Manta DNA polymerase
  full length product in polymerisation reaction: full length products were obtained

## O=c1[nH]c(=O)n([C@H]2C[C@H](O)[C@@H](COP(=O)(O)OP(=O)(O)OP(=O)(O)O)O2)cc1F [FdU, 5-fluoro-2′-deoxyuridine-5′-triphosphate]
DeepVent DNA polymerase
  full length product in polymerisation reaction: full length products were obtained
Manta DNA polymerase
  full length product in polymerisation reaction: full length products were obtained

## pseudouridine-5′-triphosphate
MANTA polymerase [1]
  distribution of each modified base in the final hairpin: equal distribution
MANTA polymerase [2]
  KD (concentration of the modified dUTP required to produce 50% of fill in reaction) compared with dTTP: almost twice the KD of dTTP
